Two compounds from paper PMC8537450, “Cyclopeptide Derivatives from the Sponge-Derived Fungus Acremonium persicinum F10” (Marine Drugs, 2021) can be followed below.

Where two headings read alike, the source gives them in different places.

Holding throughout (format): cell-based
The test system of experiment [1] is Aspergillus niger ATCC16404. The experiment in a line: microbe, parasite or virus in culture. As for the experimental part:
(§1) Compounds 1–8 were tested for antifungal activities against Aspergillus fumigatus ATCC204305 and Aspergillus niger ATCC16404 using broth microdilution antifungal susceptibility testing, according to previously published protocol. In the experiments, the RPMI-1640 medium containing 10.4 g/L of RPMI-1640 medium (R8755; Sigma, St. Louis, MO, USA), 6.7 g/L of Yeast Nitrogen Base (YNB; Becton, Dickinson and Company, Franklin Lakes, NJ, USA), 1.8% (w/v) glucose, and 40 mM HEPES (pH = 7.1) was used as culture medium. The inoculum per well for a 96-well microplate was 2 × 10^4 fresh conidia/mL (150 µL/well), which were incubated for 24 h at 37 ℃. The minimal inhibitory concentration (MIC) in the assay were performed using resazurin at 0.002% (w/v) of final concentration.

The test system of experiment [2] is Aspergillus fumigatus ATCC204305. The experiment can be described thus: microbe, parasite or virus in culture. The method, then: as §1
In experiment [3] the test system is human embryonic lung fibroblast cell MRC-5. The experiment can be described thus: Cytotoxicity, MTT assay. Conditions: MRC-5, MTT, positive control.
Experiment [4] has as its system non-small cell lung cancer cell line A549. The experiment can be described thus: Cytotoxicity, MTT assay. The settings on record: positive control. For orientation: Formazan colour is commonly taken as a measure of viable cells.
In experiment [5] the test system is small cell lung cancer cell line H446. The experiment can be described thus: Cytotoxicity, MTT assay. Conditions: printed H466, MTT, positive control.
Experiment [6] relates to small cell lung cancer cell line H1688. The experiment can be described thus: Cytotoxicity, MTT assay. Conditions: positive control.

For `C[C@@H]1[C@H](O)[C@@H](C)/C=C/C=C/C=C/C=C/C=C/C=C/C=C/[C@H](O[C@@H]2O[C@H](C)[C@@H](O)[C@H](N)[C@@H]2O)C[C@@H]2O[C@](O)(C[C@@H](O)C[C@@H](O)[C@H](O)CC[C@@H](O)C[C@@H](O)CC(=O)O[C@H]1C)C[C@H](O)[C@H]2C(=O)O` [Amphotericin B], the MIC was 1 µM in experiment [1] (ATCC16404, Table S1, broth microdilution, RPMI-1640 + YNB + 1.8% glucose + 40 mM HEPES pH 7.1, 2 × 10^4 conidia/mL, 24 h, 37 °C, resazurin 0.002%, read-out: MIC); 1 µM in experiment [1] (ATCC16404, one range given for A. fumigatus and A. niger together, read-out: MIC values); 1 µg/mL in experiment [1] (ATCC16404, text of method and conclusions, unit printed as μg/mL, read-out: MICs); 1 µM in experiment [2] (ATCC204305, Table S1, broth microdilution, RPMI-1640 + YNB + 1.8% glucose + 40 mM HEPES pH 7.1, 2 × 10^4 conidia/mL, 24 h, 37 °C, resazurin 0.002%, read-out: MIC); 1 µM in experiment [2] (ATCC204305, one range given for A. fumigatus and A. niger together, read-out: MIC values); 1 µg/mL in experiment [2] (ATCC204305, text of method and conclusions, unit printed as μg/mL, read-out: MICs).
Consider `N.N.[Cl][Pt][Cl]` [Cisplatin], for which the IC50 was 23.8 µM in experiment [3], 3.8 µM in experiment [4], 1.9 µM in experiment [5] and 3 µM in experiment [6].

In general, IC50 refers to the concentration at which inhibition is half-maximal. A higher IC50 goes with a need for much substance.
